This data set has as its system CCRIS mutagenicity, Ames/micronucleus/aberration tests. Kind of data set: CCRIS mutagenicity studies.
The mark [1] stands for this setting: Test System: AMES SALMONELLA TYPHIMURIUM, Strain/Indicator: TA98, Metabolic Activation: NONE, Method: STANDARD PLATE.
The mark [2] stands for this setting: Test System: AMES SALMONELLA TYPHIMURIUM, Strain/Indicator: TA100, Metabolic Activation: NONE, Method: STANDARD PLATE.
Where [3] appears, read: Test System: AMES SALMONELLA TYPHIMURIUM, Strain/Indicator: TA98, Metabolic Activation: NONE, Method: PREINCUBATION
The mark [4] stands for this setting: Test System: AMES SALMONELLA TYPHIMURIUM, Strain/Indicator: TA100, Metabolic Activation: NONE, Method: PREINCUBATION
The mark [5] stands for this setting: Test System: AMES SALMONELLA TYPHIMURIUM, Strain/Indicator: TA1535, Metabolic Activation: NONE, Method: STANDARD PLATE.
The mark [6] stands for this setting: Test System: AMES SALMONELLA TYPHIMURIUM, Strain/Indicator: TA1538, Metabolic Activation: NONE, Method: STANDARD PLATE.

Structures are written as SMILES. Activity calls are given as the source filed them. No rule for the calls is given here.

`O=c1[nH]c(=O)n([C@H]2C[C@H](O)[C@@H](CO)O2)cc1Br`: the mutagenic call by setting is: under setting [1], “inactive; negative”; (Test System: AMES SALMONELLA TYPHIMURIUM, Strain/Indicator: TA98, Metabolic Activation: S-9, Method: STANDARD PLATE) “inactive; negative”; under setting [2], “inactive; negative”; (Test System: AMES SALMONELLA TYPHIMURIUM, Strain/Indicator: TA100, Metabolic Activation: S-9, Method: STANDARD PLATE) “inactive; negative”; (Test System: AMES SALMONELLA TYPHIMURIUM, Strain/Indicator: TA1537, Metabolic Activation: S-9, Method: STANDARD PLATE) “inactive; negative”; (Test System: CHINESE HAMSTER V-79, Strain/Indicator: V-79/6-THIOGUANINE, Metabolic Activation: NONE, Method: STANDARD PLATE) “active; positive”. Besides, the mutagenic call (Test System: CHINESE HAMSTER V-79, Strain/Indicator: V-79/8-AZAGUANINE, Metabolic Activation: NONE, Method: STANDARD PLATE) is “active; positive”; the mutagenic call (Test System: E. COLI, Strain/Indicator: WP2 (HCR), Metabolic Activation: NONE, Method: STANDARD PLATE) is “inactive; negative”; the mutagenic call (Test System: E. COLI, Strain/Indicator: WP2 (HCR), Metabolic Activation: S-9, Method: STANDARD PLATE) is “inactive; negative”.
Regarding `Nc1ccc(N=Nc2ccc3c(c2)C(=O)/C(=N/Nc2ccc(Nc4ccc(N/N=C5/C(=O)c6cc(N=Nc7ccc(N)cc7N)ccc6C=C5S(=O)(=O)O)cc4S(=O)(=O)O)cc2)C(S(=O)(=O)O)=C3)c(N)c1`, the mutagenic call runs as follows: (Test System: AMES SALMONELLA TYPHIMURIUM, Strain/Indicator: TA98, Metabolic Activation: HAMSTER LIVER S-9, Method: PREINCUBATION) “active; positive”; (Test System: AMES SALMONELLA TYPHIMURIUM, Strain/Indicator: TA98, Metabolic Activation: HAMSTER, LIVER, S-9, AROCLOR 1254, Method: STANDARD PLATE) “active; positive”; (Test System: AMES SALMONELLA TYPHIMURIUM, Strain/Indicator: TA98, Metabolic Activation: HAMSTER, LIVER, S-9, Method: PREINCUBATION (PRIVAL METHOD)) “active; positive”; under setting [3], “active; positive”; under setting [1], “active; positive”; (Test System: AMES SALMONELLA TYPHIMURIUM, Strain/Indicator: TA98, Metabolic Activation: RAT LIVER S-9, AROCLOR 1254, Method: PREINCUBATION) “active; positive”. In addition, the mutagenic call (Test System: AMES SALMONELLA TYPHIMURIUM, Strain/Indicator: TA98, Metabolic Activation: RAT, LIVER, S-9, AROCLOR 1254, Method: STANDARD PLATE) was “active; positive”; the mutagenic call (Test System: AMES SALMONELLA TYPHIMURIUM, Strain/Indicator: TA100, Metabolic Activation: HAMSTER LIVER S-9, Method: PREINCUBATION) is “active; positive”; the mutagenic call (Test System: AMES SALMONELLA TYPHIMURIUM, Strain/Indicator: TA100, Metabolic Activation: HAMSTER, LIVER, S-9, AROCLOR 1254, Method: STANDARD PLATE) was “inactive; negative”; the mutagenic call under setting [4] is “inactive; negative”; the mutagenic call under setting [2] is “inactive; negative”; the mutagenic call (Test System: AMES SALMONELLA TYPHIMURIUM, Strain/Indicator: TA100, Metabolic Activation: RAT LIVER S-9, AROCLOR 1254, Method: PREINCUBATION) was “inactive; negative”. For the same molecule, the mutagenic call was “inactive; negative” (Test System: AMES SALMONELLA TYPHIMURIUM, Strain/Indicator: TA100, Metabolic Activation: RAT, LIVER, S-9, AROCLOR 1254, Method: STANDARD PLATE); “active; positive” (Test System: AMES SALMONELLA TYPHIMURIUM, Strain/Indicator: TA1535, Metabolic Activation: HAMSTER, LIVER, S-9, AROCLOR 1254, Method: STANDARD PLATE); “inactive; negative” under setting [5]; “inactive; negative” (Test System: AMES SALMONELLA TYPHIMURIUM, Strain/Indicator: TA1535, Metabolic Activation: RAT, LIVER, S-9, AROCLOR 1254, Method: STANDARD PLATE); “active; positive” (Test System: AMES SALMONELLA TYPHIMURIUM, Strain/Indicator: TA1537, Metabolic Activation: HAMSTER, LIVER, S-9, AROCLOR 1254, Method: STANDARD PLATE); “active; positive” (Test System: AMES SALMONELLA TYPHIMURIUM, Strain/Indicator: TA1537, Metabolic Activation: RAT, LIVER, S-9, AROCLOR 1254, Method: STANDARD PLATE). For the same molecule, the mutagenic call (Test System: AMES SALMONELLA TYPHIMURIUM, Strain/Indicator: TA1538, Metabolic Activation: HAMSTER, LIVER, S-9, AROCLOR 1254, Method: STANDARD PLATE) is “active; positive”; the mutagenic call under setting [6] was “active; positive”; the mutagenic call (Test System: AMES SALMONELLA TYPHIMURIUM, Strain/Indicator: TA1538, Metabolic Activation: RAT, LIVER, S-9, AROCLOR 1254, Method: STANDARD PLATE) is “active; positive”; the mutagenic call (Test System: MOUSE LYMPHOMA, Strain/Indicator: L5178Y (TK+/TK-), Metabolic Activation: NONE, Method: SUSPENSION/PLATE) was “inactive; negative”; the mutagenic call (Test System: MOUSE LYMPHOMA, Strain/Indicator: L5178Y (TK+/TK-), Metabolic Activation: RAT, LIVER, S-9, AROCLOR 1254, Method: SUSPENSION/PLATE) is “inactive; negative”.
For `CCN(CCCl)c1ccc(CCCNc2c3ccccc3nc3ccccc23)cc1`, the mutagenic call was “inactive; negative” (Test System: AMES SALMONELLA TYPHIMURIUM, Strain/Indicator: DG1588, Metabolic Activation: NONE, Method: STANDARD PLATE); “inactive; negative” (Test System: AMES SALMONELLA TYPHIMURIUM, Strain/Indicator: DG1592, Metabolic Activation: NONE, Method: STANDARD PLATE); “active; positive” (Test System: AMES SALMONELLA TYPHIMURIUM, Strain/Indicator: DG1593, Metabolic Activation: NONE, Method: STANDARD PLATE); “active; positive” under setting [1]; “active; positive” under setting [2]; “inactive; negative” (Test System: AMES SALMONELLA TYPHIMURIUM, Strain/Indicator: TA102, Metabolic Activation: NONE, Method: STANDARD PLATE). Moreover, the mutagenic call is “active; positive” (Test System: AMES SALMONELLA TYPHIMURIUM, Strain/Indicator: TA104, Metabolic Activation: NONE, Method: STANDARD PLATE); “inactive; negative” under setting [5]; “active; positive” (Test System: AMES SALMONELLA TYPHIMURIUM, Strain/Indicator: TA1537 (PKM101), Metabolic Activation: NONE, Method: STANDARD PLATE); “active; positive” (Test System: AMES SALMONELLA TYPHIMURIUM, Strain/Indicator: TA1537, Metabolic Activation: NONE, Method: STANDARD PLATE); “inactive; negative” under setting [6]; “inactive; negative” (Test System: AMES SALMONELLA TYPHIMURIUM, Strain/Indicator: TA1975 (PKM101), Metabolic Activation: NONE, Method: STANDARD PLATE). The mutagenic call (Test System: AMES SALMONELLA TYPHIMURIUM, Strain/Indicator: TA1975, Metabolic Activation: NONE, Method: STANDARD PLATE) was “inactive; negative”; the mutagenic call (Test System: AMES SALMONELLA TYPHIMURIUM, Strain/Indicator: TA1977, Metabolic Activation: NONE, Method: STANDARD PLATE) is “active; positive”; the mutagenic call (Test System: AMES SALMONELLA TYPHIMURIUM, Strain/Indicator: TA1978 (PKM101), Metabolic Activation: NONE, Method: STANDARD PLATE) was “active; positive”; the mutagenic call (Test System: AMES SALMONELLA TYPHIMURIUM, Strain/Indicator: TA1978, Metabolic Activation: NONE, Method: STANDARD PLATE) was “inactive; negative”; the mutagenic call (Test System: AMES SALMONELLA TYPHIMURIUM, Strain/Indicator: TA4001, Metabolic Activation: NONE, Method: STANDARD PLATE) was “active; positive”; the mutagenic call (Test System: AMES SALMONELLA TYPHIMURIUM, Strain/Indicator: TA4006, Metabolic Activation: NONE, Method: STANDARD PLATE) was “active; positive”.
In the case of `COc1ccc([Se]c2ccc(OC)cc2)cc1`, the mutagenic call (Test System: AMES SALMONELLA TYPHIMURIUM, Strain/Indicator: TA97A, Metabolic Activation: NONE, Method: STANDARD PLATE) is “inactive; negative” and the mutagenic call under setting [2] is “active; positive”.
For the molecule `NCCCNCCSP(=O)(O)O`, the mutagenic call (End Point: In vivo micronucleus, Test System: Bone marrow polychromatic erythrocytes, Species: Mouse, Strain/Sex: C57BL/6J/Male, Route: Intraperitoneal) is “inactive; negative (significant increase in pce/nce ratio only when administered before ga”.
`CNc1ccc2ncc(C)nc2c1C`: the mutagenic call under setting [3] is “inactive; negative”; the mutagenic call (Test System: AMES SALMONELLA TYPHIMURIUM, Strain/Indicator: TA98, Metabolic Activation: RAT, LIVER, S-9, PCB, Method: PREINCUBATION) was “active; positive”; the mutagenic call under setting [4] was “inactive; negative”; the mutagenic call (Test System: AMES SALMONELLA TYPHIMURIUM, Strain/Indicator: TA100, Metabolic Activation: RAT, LIVER, S-9, PCB, Method: PREINCUBATION) is “active; positive”.

Source of the values: PubChem BioAssay AID1259407 (Chemical Carcinogenesis Research Information System (CCRIS), 2018).
